“And” between values parts separate entries of the source, which are not always exact repeats. Equal values may be shown once. Records with an inconclusive call do not appear.
System: CD8F1 mice, subcutaneous mammary adenocarcinoma, T/C%
Assay: NCI In Vivo Anticancer Drug Screen. Data for tumor model Mammary Adenocarcinoma CD8F1 (subcutaneous) in CD8F1
Conditions: higher = larger tumour
How it was run: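 Tumor-bearing mice, transplantable model; readout survival or tumor size; value = treated (T) / vehicle control (C).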

[1] = endpoint: median tumor weight (est.), dose: 50.0 mg/kg/injection, schedule: Q07DX005 (ip), vehicle: saline
[2] = endpoint: median tumor weight (est.), dose: 100.0 mg/kg/injection, schedule: Q07DX005 (ip), vehicle: saline
[3] = endpoint: median tumor weight (est.), dose: 200.0 mg/kg/injection, schedule: Q07DX005 (ip), vehicle: saline
[4] = endpoint: median tumor weight (est.), dose: 50.0 mg/kg/injection, schedule: Q07DX005 (ip), vehicle: saline with Tween-80

## CC(=O)OC1=NC(C)c2c1cc(OC(C)=O)[nH]c2=O (configuration not stated)
endpoint: median tumor weight (est.), dose: 12.5 mg/kg/injection, schedule: Q07DX005 (ip), vehicle: Klucel (hydroxypropylcellulose) (HPC)
  T/C: 86 % of control
endpoint: median tumor weight (est.), dose: 25.0 mg/kg/injection, schedule: Q07DX005 (ip), vehicle: Klucel (hydroxypropylcellulose) (HPC)
  T/C: 168 % of control
endpoint: median tumor weight (est.), dose: 50.0 mg/kg/injection, schedule: Q07DX005 (ip), vehicle: Klucel (hydroxypropylcellulose) (HPC)
  T/C: 111 % of control

## N=C(N)SCc1c2ccccc2c(CSC(=N)N)c2ccccc12
[1]
  T/C: 105 % of control and 119 % of control
[2]
  T/C: 107 % of control
[3]
  T/C: 25 % of control
endpoint: median tumor weight change, dose: 50.0 mg/kg/injection, schedule: Q01DX001 (ip), vehicle: saline + alcohol
  T/C: 77 % of control
endpoint: median tumor weight change, dose: 50.0 mg/kg/injection, schedule: Q01DX001 (ip), vehicle: suspension in saline
  T/C: 90 % of control
endpoint: median tumor weight change, dose: 100.0 mg/kg/injection, schedule: Q01DX001 (ip), vehicle: saline + alcohol
  T/C: 99 % of control
endpoint: median tumor weight change, dose: 100.0 mg/kg/injection, schedule: Q01DX001 (ip), vehicle: suspension in saline
  T/C: 102 % of control and 111 % of control
endpoint: median tumor weight change, dose: 200.0 mg/kg/injection, schedule: Q01DX001 (ip), vehicle: saline + alcohol
  T/C: 58 % of control
endpoint: median tumor weight change, dose: 200.0 mg/kg/injection, schedule: Q01DX001 (ip), vehicle: suspension in saline
  T/C: 84 % of control and 86 % of control
endpoint: median tumor weight change, dose: 400.0 mg/kg/injection, schedule: Q01DX001 (ip), vehicle: saline + alcohol
  T/C: 31 % of control

## COc1nc(C(Cl)(Cl)Cl)c(Cl)c(OC)c1Cl
endpoint: median tumor weight change, dose: 60.0 mg/kg/injection, schedule: Q01DX005 (ip), vehicle: Klucel (hydroxypropylcellulose) (HPC)
  T/C: 32 % of control
endpoint: median tumor weight change, dose: 62.5 mg/kg/injection, schedule: Q01DX001 (ip), vehicle: Klucel (hydroxypropylcellulose) (HPC)
  T/C: 174 % of control
endpoint: median tumor weight change, dose: 125.0 mg/kg/injection, schedule: Q01DX001 (ip), vehicle: Klucel (hydroxypropylcellulose) (HPC)
  T/C: 81 % of control and 95 % of control
endpoint: median tumor weight change, dose: 200.0 mg/kg/injection, schedule: Q01DX005 (ip), vehicle: Klucel (hydroxypropylcellulose) (HPC)
  T/C: -15 % of control

## Nc1ccn(C2OC(CO)C(O)C2O)c(=O)n1 (configuration not stated)
endpoint: mean tumor weight, dose: 18.75 mg/kg/injection, schedule: Q01DX009 (ip), vehicle: saline
  T/C: 84 % of control
endpoint: mean tumor weight, dose: 25.0 mg/kg/injection, schedule: Q07DX007 (ip), vehicle: saline
  T/C: 101 % of control
endpoint: mean tumor weight, dose: 37.5 mg/kg/injection, schedule: Q01DX009 (ip), vehicle: saline
  T/C: 39 % of control
endpoint: mean tumor weight, dose: 75.0 mg/kg/injection, schedule: Q07DX005 (ip), vehicle: saline
  T/C: 89 % of control
endpoint: mean tumor weight, dose: 75.0 mg/kg/injection, schedule: Q07DX007 (ip), vehicle: saline
  T/C: 98 % of control
endpoint: mean tumor weight, dose: 150.0 mg/kg/injection, schedule: Q07DX005 (ip), vehicle: saline
  T/C: 89 % of control
endpoint: mean tumor weight, dose: 300.0 mg/kg/injection, schedule: Q07DX005 (ip), vehicle: saline
  T/C: 100 % of control
endpoint: median tumor weight (est.), dose: 75.0 mg/kg/injection, schedule: Q04DX005 (ip), vehicle: saline
  T/C: 31 % of control and 55 % of control
endpoint: median tumor weight (est.), dose: 130.0 mg/kg/injection, schedule: Q07DX005 (ip), vehicle: saline
  T/C: 79 % of control
endpoint: median tumor weight (est.), dose: 150.0 mg/kg/injection, schedule: Q04DX005 (ip), vehicle: saline
  T/C: 50 % of control and 53 % of control
endpoint: median tumor weight (est.), dose: 150.0 mg/kg/injection, schedule: Q07DX004 (ip), vehicle: saline
  T/C: 22 % of control and 41 % of control
[3]
  T/C: 73 % of control
endpoint: median tumor weight (est.), dose: 300.0 mg/kg/injection, schedule: Q07DX005 (ip), vehicle: saline
  T/C: 48 % of control
endpoint: median tumor weight (est.), dose: 450.0 mg/kg/injection, schedule: Q07DX005 (ip), vehicle: saline
  T/C: 75 % of control
endpoint: median tumor weight (est.), dose: 600.0 mg/kg/injection, schedule: Q07DX005 (ip), vehicle: saline with Tween-80
  T/C: 34 % of control and 45 % of control
endpoint: median tumor weight (est.), dose: 790.0 mg/kg/injection, schedule: Q01DX001 (ip), vehicle: saline
  T/C: 74 % of control
endpoint: median tumor weight (est.), dose: 1180.0 mg/kg/injection, schedule: Q01DX001 (ip), vehicle: saline
  T/C: 54 % of control
endpoint: median tumor weight (est.), dose: 1200.0 mg/kg/injection, schedule: Q07DX005 (ip), vehicle: saline with Tween-80
  T/C: 6 % of control and 18 % of control
endpoint: median tumor weight (est.), dose: 1750.0 mg/kg/injection, schedule: Q01DX001 (ip), vehicle: saline
  T/C: 54 % of control
endpoint: median tumor weight (est.), dose: 2500.0 mg/kg/injection, schedule: Q01DX001 (ip), vehicle: saline
  T/C: 62 % of control
endpoint: median tumor weight change, dose: 790.0 mg/kg/injection, schedule: Q01DX001 (ip), vehicle: water
  T/C: 48 % of control
endpoint: median tumor weight change, dose: 1180.0 mg/kg/injection, schedule: Q01DX001 (ip), vehicle: water
  T/C: 77 % of control
endpoint: median tumor weight change, dose: 1750.0 mg/kg/injection, schedule: Q01DX001 (ip), vehicle: water
  T/C: 57 % of control
endpoint: median tumor weight change, dose: 2500.0 mg/kg/injection, schedule: Q01DX001 (ip), vehicle: water
  T/C: 33 % of control

## O=c1cc(CCl)[nH]nc1CCl
endpoint: median tumor weight (est.), dose: 3.12 mg/kg/injection, schedule: Q07DX005 (ip), vehicle: saline with Tween-80
  T/C: 86 % of control and 88 % of control
endpoint: median tumor weight (est.), dose: 6.25 mg/kg/injection, schedule: Q07DX005 (ip), vehicle: saline with Tween-80
  T/C: 96 % of control and 103 % of control
endpoint: median tumor weight (est.), dose: 12.5 mg/kg/injection, schedule: Q07DX005 (ip), vehicle: saline with Tween-80
  T/C: 92 % of control and 106 % of control
[4]
  T/C: 55 % of control

## OC(CCl)CN1CC[N+]2(CC1)CC[N+]1(CCN(CC(O)CCl)CC1)CC2 (configuration not stated)
endpoint: median tumor weight (est.), dose: 12.5 mg/kg/injection, schedule: Q07DX005 (ip), vehicle: saline
  T/C: 57 % of control
endpoint: median tumor weight (est.), dose: 25.0 mg/kg/injection, schedule: Q07DX005 (ip), vehicle: saline
  T/C: 67 % of control
[1]
  T/C: 80 % of control
[2]
  T/C: 43 % of control
[3]
  T/C: 36 % of control
endpoint: median tumor weight (est.), dose: 400.0 mg/kg/injection, schedule: Q07DX005 (ip), vehicle: saline
  T/C: 11 % of control
endpoint: median tumor weight change, dose: 50.0 mg/kg/injection, schedule: Q01DX001 (ip), vehicle: saline
  T/C: 101 % of control
endpoint: median tumor weight change, dose: 100.0 mg/kg/injection, schedule: Q01DX001 (ip), vehicle: saline
  T/C: 111 % of control
endpoint: median tumor weight change, dose: 200.0 mg/kg/injection, schedule: Q01DX001 (ip), vehicle: saline
  T/C: 96 % of control and 119 % of control
endpoint: median tumor weight change, dose: 800.0 mg/kg/injection, schedule: Q01DX001 (ip), vehicle: saline
  T/C: 49 % of control and 56 % of control

## COc1cc(OC)c(NC(=O)ON2C(=O)c3ccccc3C2=O)cc1Cl
endpoint: median tumor weight change, dose: 31.25 mg/kg/injection, schedule: Q01DX001 (ip), vehicle: saline with Tween-80
  T/C: 62 % of control
endpoint: median tumor weight change, dose: 62.5 mg/kg/injection, schedule: Q01DX001 (ip), vehicle: saline with Tween-80
  T/C: 81 % of control
endpoint: median tumor weight change, dose: 125.0 mg/kg/injection, schedule: Q01DX001 (ip), vehicle: saline with Tween-80
  T/C: 92 % of control
endpoint: median tumor weight change, dose: 500.0 mg/kg/injection, schedule: Q01DX001 (ip), vehicle: saline with Tween-80
  T/C: 26 % of control

## S=C=NCCc1ccccc1
endpoint: median tumor weight (est.), dose: 25.0 mg/kg/injection, schedule: Q07DX005 (ip), vehicle: saline with Tween-80
  T/C: 120 % of control
[4]
  T/C: 111 % of control
endpoint: median tumor weight (est.), dose: 100.0 mg/kg/injection, schedule: Q07DX005 (ip), vehicle: saline with Tween-80
  T/C: 53 % of control

## CC1=CC2c3cccc4[nH]cc(c34)CC2N(C)C1 (configuration not stated)
endpoint: median tumor weight change, dose: 25.0 mg/kg/injection, schedule: Q01DX001 (ip), vehicle: suspension in saline
  T/C: 115 % of control

## C[C@]12CC[C@H]3[C@@H](CCC4=C[C@@H](OC5OCC(OC6OC(CO)C(O)C(O)C6O)C(O)C5O)CC[C@@]43C=O)[C@@]1(O)CCC2C1=CC(=O)OC1 (some centres not stated)
endpoint: median tumor weight (est.), dose: 0.62 mg/kg/injection, schedule: Q07DX005 (ip), vehicle: Klucel (hydroxypropylcellulose) (HPC)
  T/C: 63 % of control
endpoint: median tumor weight (est.), dose: 1.25 mg/kg/injection, schedule: Q07DX005 (ip), vehicle: Klucel (hydroxypropylcellulose) (HPC)
  T/C: 85 % of control and 89 % of control
endpoint: median tumor weight (est.), dose: 10.0 mg/kg/injection, schedule: Q07DX005 (ip), vehicle: Klucel (hydroxypropylcellulose) (HPC)
  T/C: 93 % of control and 108 % of control
endpoint: median tumor weight (est.), dose: 20.0 mg/kg/injection, schedule: Q07DX005 (ip), vehicle: Klucel (hydroxypropylcellulose) (HPC)
  T/C: 106 % of control
endpoint: median tumor weight (est.), dose: 40.0 mg/kg/injection, schedule: Q07DX005 (ip), vehicle: Klucel (hydroxypropylcellulose) (HPC)
  T/C: 93 % of control

## O=NN(CCCl)C(=O)Oc1ccc(OC(=O)N(CCCl)N=O)cc1
endpoint: median tumor weight change, dose: 25.0 mg/kg/injection, schedule: Q01DX001 (ip), vehicle: Klucel (hydroxypropylcellulose) (HPC)
  T/C: 107 % of control
endpoint: median tumor weight change, dose: 50.0 mg/kg/injection, schedule: Q01DX001 (ip), vehicle: Klucel (hydroxypropylcellulose) (HPC)
  T/C: 75 % of control

## CS(=O)(=O)[O-].CS(=O)(=O)[O-].NC1CCCCC1N.[Pt+4] (configuration not stated)
endpoint: median tumor weight (est.), dose: 0.63 mg/kg/injection, schedule: Q07DX005 (ip), vehicle: dextrose
  T/C: 96 % of control
endpoint: median tumor weight (est.), dose: 5.0 mg/kg/injection, schedule: Q07DX005 (ip), vehicle: dextrose
  T/C: 4 % of control and 8 % of control

Reference: PubChem BioAssay AID220 (DTP/NCI, 2004)
